Test results as given in ChEMBL document CHEMBL1141382, “Studies leading to potent, dual inhibitors of Bcl-2 and Bcl-xL” (J Med Chem, 2007).

Columns and labels:
[1] = biological target: Apoptosis regulator Bcl-2 (Homo sapiens, UniProt P10415); assay: Displacement of Bax-derived peptide from Bcl2 by fluorescence polarization assay
Bcl-2-like protein 1 [2] = biological target: T1, Bcl-2-like protein 1 (Homo sapiens, UniProt Q07817); assay: Displacement of Bad-derived peptide from Bcl-xL by fluorescence polarization assay
Bcl-2-like protein 1 [3] = biological target: T1, Bcl-2-like protein 1; assay: Displacement of Bad-derived peptide from Bcl-xL by FPA in presence of 10% human serum

Chain of Apoptosis regulator Bcl-2 (P10415 whole entry): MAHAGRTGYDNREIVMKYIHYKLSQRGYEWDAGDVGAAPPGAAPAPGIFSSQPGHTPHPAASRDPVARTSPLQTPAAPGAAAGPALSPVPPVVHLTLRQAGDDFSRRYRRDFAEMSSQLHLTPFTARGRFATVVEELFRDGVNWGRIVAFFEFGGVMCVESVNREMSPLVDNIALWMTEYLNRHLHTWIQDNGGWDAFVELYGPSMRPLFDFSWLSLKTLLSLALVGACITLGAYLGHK
T1 sequence (Q07817 whole entry): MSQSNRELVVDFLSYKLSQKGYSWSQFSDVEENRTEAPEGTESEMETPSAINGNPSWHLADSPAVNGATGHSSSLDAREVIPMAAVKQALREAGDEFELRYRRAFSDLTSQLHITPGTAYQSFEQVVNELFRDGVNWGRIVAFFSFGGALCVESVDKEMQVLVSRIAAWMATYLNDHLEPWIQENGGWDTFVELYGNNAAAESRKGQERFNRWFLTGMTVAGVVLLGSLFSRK

SMILES: COC1(CC(C)(C)C)CCN(c2ccc(C(=O)NS(=O)(=O)c3ccc(N[C@H](CCN(C)C)CSc4ccccc4)c([N+](=O)[O-])c3)cc2)CC1
- Ki [1]: 16 nM
- Ki (Bcl-2-like protein 1 [2]): 4.6 nM
- IC50 (Bcl-2-like protein 1 [3]): 440 nM

SMILES: COC1(Cc2ccccc2-c2ccccc2)CCN(c2ccc(C(=O)NS(=O)(=O)c3ccc(N[C@H](CCN(C)C)CSc4ccccc4)c([N+](=O)[O-])c3)cc2)CC1
- Ki [1]: < 1 nM
- Ki (Bcl-2-like protein 1 [2]): < 0.5 nM
- IC50 (Bcl-2-like protein 1 [3]): < 60 nM

SMILES: COC1(Cc2ccc(-c3ccccc3)cc2)CCN(c2ccc(C(=O)NS(=O)(=O)c3ccc(N[C@H](CCN(C)C)CSc4ccccc4)c([N+](=O)[O-])c3)cc2)CC1
- Ki [1]: < 1 nM
- Ki (Bcl-2-like protein 1 [2]): 0.9 nM
- IC50 (Bcl-2-like protein 1 [3]): 160 nM

SMILES: CN(C)CC[C@H](CSc1ccccc1)Nc1ccc(S(=O)(=O)NC(=O)c2ccc(N3CCC(=Cc4ccccn4)CC3)cc2)cc1[N+](=O)[O-]
- Ki [1]: 46 nM
- Ki (Bcl-2-like protein 1 [2]): 3.6 nM
- IC50 (Bcl-2-like protein 1 [3]): 700 nM

SMILES: CN(C)CC[C@H](CSc1ccccc1)Nc1ccc(S(=O)(=O)NC(=O)c2ccc(N3CCN(Cc4ccccc4-c4cccnc4)CC3)cc2)cc1[N+](=O)[O-]
- Ki [1]: 1 nM
- Ki (Bcl-2-like protein 1 [2]): < 0.5 nM
- IC50 (Bcl-2-like protein 1 [3]): 81 nM

SMILES: CN(C)CC[C@H](CSc1ccccc1)Nc1ccc(S(=O)(=O)NC(=O)c2ccc(N3CCC(=Cc4ccccc4-c4ccccc4)CC3)cc2)cc1[N+](=O)[O-]
- Ki [1]: < 1 nM
- Ki (Bcl-2-like protein 1 [2]): < 0.5 nM
- IC50 (Bcl-2-like protein 1 [3]): 83 nM

SMILES: CN(C)CC[C@H](CSc1ccccc1)Nc1ccc(S(=O)(=O)NC(=O)c2ccc(N3CCN(Cc4ccccc4C(F)(F)F)CC3)cc2)cc1[N+](=O)[O-]
- Ki [1]: < 1 nM
- Ki (Bcl-2-like protein 1 [2]): < 0.5 nM
- IC50 (Bcl-2-like protein 1 [3]): 85 nM

SMILES: CSc1ccccc1CN1CCN(c2ccc(C(=O)NS(=O)(=O)c3ccc(N[C@H](CCN(C)C)CSc4ccccc4)c([N+](=O)[O-])c3)cc2)CC1
- Ki [1]: < 1 nM
- Ki (Bcl-2-like protein 1 [2]): < 0.5 nM
- IC50 (Bcl-2-like protein 1 [3]): < 60 nM

SMILES: CN(C)CC[C@H](CSc1ccccc1)Nc1ccc(S(=O)(=O)NC(=O)c2ccc(N3CCN(Cc4ccccc4NC4CCCCC4)CC3)cc2)cc1[N+](=O)[O-]
- Ki [1]: 3.5 nM
- Ki (Bcl-2-like protein 1 [2]): 0.6 nM
- IC50 (Bcl-2-like protein 1 [3]): 370 nM

SMILES: CN(C)CC[C@H](CSc1ccccc1)Nc1ccc(S(=O)(=O)NC(=O)c2ccc(N3CCC(=Cc4ccc(C(F)(F)F)cc4)CC3)cc2)cc1[N+](=O)[O-]
- Ki [1]: 9.4 nM
- Ki (Bcl-2-like protein 1 [2]): 1.4 nM
- IC50 (Bcl-2-like protein 1 [3]): 1300 nM

SMILES: COc1ccccc1CC1(OC)CCN(c2ccc(C(=O)NS(=O)(=O)c3ccc(N[C@H](CCN(C)C)CSc4ccccc4)c([N+](=O)[O-])c3)cc2)CC1
- Ki [1]: 1.6 nM
- Ki (Bcl-2-like protein 1 [2]): 1.1 nM
- IC50 (Bcl-2-like protein 1 [3]): 75 nM

SMILES: CN(C)CC[C@H](CSc1ccccc1)Nc1ccc(S(=O)(=O)NC(=O)c2ccc(N3CCC(=Cc4ccccc4C#N)CC3)cc2)cc1[N+](=O)[O-]
- Ki [1]: 13 nM
- Ki (Bcl-2-like protein 1 [2]): < 0.5 nM
- IC50 (Bcl-2-like protein 1 [3]): 520 nM

SMILES: COC1(CC(C)C)CCN(c2ccc(C(=O)NS(=O)(=O)c3ccc(N[C@H](CCN(C)C)CSc4ccccc4)c([N+](=O)[O-])c3)cc2)CC1
- Ki [1]: 56 nM
- Ki (Bcl-2-like protein 1 [2]): 6.1 nM
- IC50 (Bcl-2-like protein 1 [3]): 360 nM

SMILES: CN(C)CC[C@H](CSc1ccccc1)Nc1ccc(S(=O)(=O)NC(=O)c2ccc(N3CCC(=Cc4ccccc4F)CC3)cc2)cc1[N+](=O)[O-]
- Ki [1]: 2.5 nM
- Ki (Bcl-2-like protein 1 [2]): < 0.5 nM
- IC50 (Bcl-2-like protein 1 [3]): 750 nM

SMILES: COC1(Cc2ccccc2)CCN(c2ccc(C(=O)NS(=O)(=O)c3ccc(N[C@H](CCN(C)C)CSc4ccccc4)c([N+](=O)[O-])c3)cc2)CC1
- Ki [1]: 8.1 nM
- Ki (Bcl-2-like protein 1 [2]): 1.8 nM
- IC50 (Bcl-2-like protein 1 [3]): 150 nM

SMILES: CN(C)CC[C@H](CSc1ccccc1)Nc1ccc(S(=O)(=O)NC(=O)c2ccc(N3CCC4(CC3)CC(c3ccccc3)=NO4)cc2)cc1[N+](=O)[O-]
- Ki [1]: 35.2 nM
- Ki (Bcl-2-like protein 1 [2]): 4.4 nM

SMILES: CN(C)CC[C@H](CSc1ccccc1)Nc1ccc(S(=O)(=O)NC(=O)c2ccc(N3CCN(Cc4ccccc4C4CCCCC4)CC3)cc2)cc1[N+](=O)[O-]
- Ki [1]: < 1 nM
- Ki (Bcl-2-like protein 1 [2]): < 0.5 nM
- IC50 (Bcl-2-like protein 1 [3]): 61 nM

SMILES: CN(C)CC[C@H](CSc1ccccc1)Nc1ccc(S(=O)(=O)NC(=O)c2ccc(N3CCC(=Cc4ccc(Cl)cc4)CC3)cc2)cc1[N+](=O)[O-]
- Ki [1]: 2.1 nM
- Ki (Bcl-2-like protein 1 [2]): < 0.5 nM
- IC50 (Bcl-2-like protein 1 [3]): 510 nM

SMILES: CCCCCC1(OC)CCN(c2ccc(C(=O)NS(=O)(=O)c3ccc(N[C@H](CCN(C)C)CSc4ccccc4)c([N+](=O)[O-])c3)cc2)CC1
- Ki [1]: 20 nM
- Ki (Bcl-2-like protein 1 [2]): 1.3 nM
- IC50 (Bcl-2-like protein 1 [3]): 312 nM

SMILES: COC1(CC2CCCCC2)CCN(c2ccc(C(=O)NS(=O)(=O)c3ccc(N[C@H](CCN(C)C)CSc4ccccc4)c([N+](=O)[O-])c3)cc2)CC1
- Ki [1]: 6.6 nM
- Ki (Bcl-2-like protein 1 [2]): 0.8 nM
- IC50 (Bcl-2-like protein 1 [3]): 300 nM

SMILES: CN(C)CC[C@H](CSc1ccccc1)Nc1ccc(S(=O)(=O)NC(=O)c2ccc(N3CCC(=Cc4ccccc4Cl)CC3)cc2)cc1[N+](=O)[O-]
- Ki [1]: 0.7 nM
- Ki (Bcl-2-like protein 1 [2]): < 0.5 nM
- IC50 (Bcl-2-like protein 1 [3]): 700 nM

SMILES: CN(C)CC[C@H](CSc1ccccc1)Nc1ccc(S(=O)(=O)NC(=O)c2ccc(N3CCC(=Cc4cccnc4)CC3)cc2)cc1[N+](=O)[O-]
- Ki [1]: 68 nM
- Ki (Bcl-2-like protein 1 [2]): 1.3 nM
- IC50 (Bcl-2-like protein 1 [3]): 2800 nM

SMILES: CN(C)CC[C@H](CSc1ccccc1)Nc1ccc(S(=O)(=O)NC(=O)c2ccc(N3CCN(Cc4ccccc4N4CCOCC4)CC3)cc2)cc1[N+](=O)[O-]
- Ki [1]: < 1 nM
- Ki (Bcl-2-like protein 1 [2]): < 0.5 nM
- IC50 (Bcl-2-like protein 1 [3]): < 60 nM

SMILES: COC1(Cc2cccc(Cl)c2)CCN(c2ccc(C(=O)NS(=O)(=O)c3ccc(N[C@H](CCN(C)C)CSc4ccccc4)c([N+](=O)[O-])c3)cc2)CC1
- Ki [1]: 1.8 nM
- Ki (Bcl-2-like protein 1 [2]): < 0.5 nM
- IC50 (Bcl-2-like protein 1 [3]): 170 nM

SMILES: COC1(Cc2ccccc2C)CCN(c2ccc(C(=O)NS(=O)(=O)c3ccc(N[C@H](CCN(C)C)CSc4ccccc4)c([N+](=O)[O-])c3)cc2)CC1
- Ki [1]: 1.4 nM
- Ki (Bcl-2-like protein 1 [2]): < 0.5 nM
- IC50 (Bcl-2-like protein 1 [3]): 71 nM

SMILES: COC1(Cc2ccc(Cl)cc2)CCN(c2ccc(C(=O)NS(=O)(=O)c3ccc(N[C@H](CCN(C)C)CSc4ccccc4)c([N+](=O)[O-])c3)cc2)CC1
- Ki [1]: 2.7 nM
- Ki (Bcl-2-like protein 1 [2]): 0.9 nM
- IC50 (Bcl-2-like protein 1 [3]): 200 nM

SMILES: COC1(Cc2ccccc2F)CCN(c2ccc(C(=O)NS(=O)(=O)c3ccc(N[C@H](CCN(C)C)CSc4ccccc4)c([N+](=O)[O-])c3)cc2)CC1
- Ki [1]: 3.1 nM
- Ki (Bcl-2-like protein 1 [2]): 0.9 nM
- IC50 (Bcl-2-like protein 1 [3]): 79 nM

SMILES: CN(C)CC[C@H](CSc1ccccc1)Nc1ccc(S(=O)(=O)NC(=O)c2ccc(N3CCC(=Cc4ccccc4C(F)(F)F)CC3)cc2)cc1[N+](=O)[O-]
- Ki [1]: 2 nM
- Ki (Bcl-2-like protein 1 [2]): < 0.5 nM
- IC50 (Bcl-2-like protein 1 [3]): 300 nM

SMILES: COc1ccccc1C=C1CCN(c2ccc(C(=O)NS(=O)(=O)c3ccc(N[C@H](CCN(C)C)CSc4ccccc4)c([N+](=O)[O-])c3)cc2)CC1
- Ki [1]: 2 nM
- Ki (Bcl-2-like protein 1 [2]): 0.6 nM
- IC50 (Bcl-2-like protein 1 [3]): 760 nM

SMILES: CC1OC2(CCN(c3ccc(C(=O)NS(=O)(=O)c4ccc(N[C@H](CCN(C)C)CSc5ccccc5)c([N+](=O)[O-])c4)cc3)CC2)N(Cc2ccccc2)C1=O (stereo partly drawn)
- Ki [1]: 9.6 nM
- Ki (Bcl-2-like protein 1 [2]): 3.7 nM

SMILES: CN(C)CC[C@H](CSc1ccccc1)Nc1ccc(S(=O)(=O)NC(=O)c2ccc(N3CCN(Cc4ccccc4)CC3)cc2)cc1[N+](=O)[O-]
- Ki [1]: 39.8 nM
- Ki (Bcl-2-like protein 1 [2]): 2.6 nM
- IC50 (Bcl-2-like protein 1 [3]): 350 nM

SMILES: CN(C)CC[C@H](CSc1ccccc1)Nc1ccc(S(=O)(=O)NC(=O)c2ccc(N3CCC(=Cc4ccc(F)cc4)CC3)cc2)cc1[N+](=O)[O-]
- Ki [1]: 3.4 nM
- Ki (Bcl-2-like protein 1 [2]): < 0.5 nM
- IC50 (Bcl-2-like protein 1 [3]): 520 nM

SMILES: CN(C)CC[C@H](CSc1ccccc1)Nc1ccc(S(=O)(=O)NC(=O)c2ccc(N3CCN(C(=O)c4ccccc4)CC3)cc2)cc1[N+](=O)[O-]
- Ki [1]: 61.9 nM
- Ki (Bcl-2-like protein 1 [2]): < 1 nM

SMILES: COc1ccccc1CN1CCN(c2ccc(C(=O)NS(=O)(=O)c3ccc(N[C@H](CCN(C)C)CSc4ccccc4)c([N+](=O)[O-])c3)cc2)CC1
- Ki [1]: 3.2 nM
- Ki (Bcl-2-like protein 1 [2]): < 0.5 nM
- IC50 (Bcl-2-like protein 1 [3]): 80 nM

SMILES: CN(C)CC[C@H](CSc1ccccc1)Nc1ccc(S(=O)(=O)NC(=O)c2ccc(N3CCC4(CC3)CC(Cc3ccccc3)=NO4)cc2)cc1[N+](=O)[O-]
- Ki [1]: 6.5 nM
- Ki (Bcl-2-like protein 1 [2]): 1.7 nM

SMILES: CC1(C)CCN(c2ccc(C(=O)NS(=O)(=O)c3ccc(NC(C)(C)CSc4ccccc4)c([N+](=O)[O-])c3)cc2)CC1
- Ki (Bcl-2-like protein 1 [2]): 0.8 nM
- IC50 (Bcl-2-like protein 1 [3]): 360 nM

SMILES: COC1(Cc2ccccc2Cl)CCN(c2ccc(C(=O)NS(=O)(=O)c3ccc(N[C@H](CCN(C)C)CSc4ccccc4)c([N+](=O)[O-])c3)cc2)CC1
- Ki [1]: < 1 nM
- Ki (Bcl-2-like protein 1 [2]): < 0.5 nM
- IC50 (Bcl-2-like protein 1 [3]): 62 nM

SMILES: COC1(Cc2ccccc2Br)CCN(c2ccc(C(=O)NS(=O)(=O)c3ccc(N[C@H](CCN(C)C)CSc4ccccc4)c([N+](=O)[O-])c3)cc2)CC1
- Ki [1]: 1.5 nM
- Ki (Bcl-2-like protein 1 [2]): < 0.5 nM
- IC50 (Bcl-2-like protein 1 [3]): < 60 nM

SMILES: CN(C)CC[C@H](CSc1ccccc1)Nc1ccc(S(=O)(=O)NC(=O)c2ccc(N3CCN(C(=O)Nc4ccccc4)CC3)cc2)cc1[N+](=O)[O-]
- Ki [1]: 300 nM
- Ki (Bcl-2-like protein 1 [2]): 2.5 nM

SMILES: Cc1ccc(S(=O)(=O)N2CCN(c3ccc(C(=O)NS(=O)(=O)c4ccc(N[C@H](CCN(C)C)CSc5ccccc5)c([N+](=O)[O-])c4)cc3)CC2)cc1
- Ki [1]: 6.1 nM
- Ki (Bcl-2-like protein 1 [2]): 4 nM
